Assay results as given in patent US11912701B2, “Protein kinase inhibitors for promoting liver regeneration or reducing or preventing hepatocyte death” (HEPAREGENIX GMBH, priority 2018, dated 2024).

Legend:
Assay type in all cases: biochemical
JNK1 = JNK1 (Homo sapiens, UniProt P45983); assay: 33PanQinase enzyme assay, JNK1; set-up: purchased ProQinase GmbH, Freiburg, Germany (33PanQinase Assay Service); settings: ratio IC50(JNK1)/IC50(MKK4)
Outline: (§1)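 Off-target selectivity is the ratio IC50(off-target)/IC50(MKK4), with IC50 values from least-squares fitting and single-point data as % residual activity. Reactions of enzyme/substrate mix, ATP and compound ran 60 min at 30° C before H3PO4 stop; ^33P incorporation read on a scintillation counter.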

MKK7 = biological target: T1, MKK7 (Homo sapiens, UniProt O14733); assay: 33PanQinase enzyme assay, MKK7; set-up: purchased ProQinase GmbH, Freiburg, Germany (33PanQinase Assay Service); settings: ratio IC50(MKK7)/IC50(MKK4)
T1 sequence (O14733 1-419): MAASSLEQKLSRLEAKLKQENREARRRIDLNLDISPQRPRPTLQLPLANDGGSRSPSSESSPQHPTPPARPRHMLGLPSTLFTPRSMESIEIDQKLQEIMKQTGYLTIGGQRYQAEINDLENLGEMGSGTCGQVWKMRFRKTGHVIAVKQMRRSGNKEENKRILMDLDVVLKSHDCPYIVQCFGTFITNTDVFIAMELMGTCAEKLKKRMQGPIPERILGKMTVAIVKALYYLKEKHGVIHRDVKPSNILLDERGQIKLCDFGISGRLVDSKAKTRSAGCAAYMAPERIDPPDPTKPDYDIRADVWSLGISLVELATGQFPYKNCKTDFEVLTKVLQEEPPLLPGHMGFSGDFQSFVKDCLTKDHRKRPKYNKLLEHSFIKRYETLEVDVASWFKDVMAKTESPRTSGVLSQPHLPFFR
Outline: as §1

BRaf = biological target: T2, BRaf (Homo sapiens, UniProt P15056); assay: 33PanQinase enzyme assay, BRaf; settings: ratio IC50(BRaf)/IC50(MKK4)
T2 construct: purchased ProQinase GmbH, Freiburg, Germany (33PanQinase Assay Service)
Outline: as §1

MKK4 = biological target: T3, MKK4 (Homo sapiens, UniProt P45985); assay: 33PanQinase enzyme assay, MKK4; settings: assay 'IC50'; read-out: Potency MKK4 (IC50)
T3 construct: purchased ProQinase GmbH, Freiburg, Germany (33PanQinase Assay Service)
T3 sequence (P45985 1-399): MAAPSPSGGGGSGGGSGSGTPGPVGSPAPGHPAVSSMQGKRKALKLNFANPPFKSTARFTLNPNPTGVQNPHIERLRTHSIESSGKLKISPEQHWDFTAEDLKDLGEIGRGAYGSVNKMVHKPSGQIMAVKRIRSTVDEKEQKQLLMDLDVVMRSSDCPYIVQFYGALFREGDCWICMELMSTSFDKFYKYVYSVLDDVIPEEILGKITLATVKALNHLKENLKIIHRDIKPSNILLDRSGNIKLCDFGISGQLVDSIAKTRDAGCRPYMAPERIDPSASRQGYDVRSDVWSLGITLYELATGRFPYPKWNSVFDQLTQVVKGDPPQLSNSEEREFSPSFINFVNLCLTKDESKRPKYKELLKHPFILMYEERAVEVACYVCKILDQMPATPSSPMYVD
Outline: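 Inhibition measured as 33Pi transfer to substrate after a 60-min, 30 °C reaction, acid-stopped and scintillation-counted.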

T2 sequence (P15056 whole entry, species assumed): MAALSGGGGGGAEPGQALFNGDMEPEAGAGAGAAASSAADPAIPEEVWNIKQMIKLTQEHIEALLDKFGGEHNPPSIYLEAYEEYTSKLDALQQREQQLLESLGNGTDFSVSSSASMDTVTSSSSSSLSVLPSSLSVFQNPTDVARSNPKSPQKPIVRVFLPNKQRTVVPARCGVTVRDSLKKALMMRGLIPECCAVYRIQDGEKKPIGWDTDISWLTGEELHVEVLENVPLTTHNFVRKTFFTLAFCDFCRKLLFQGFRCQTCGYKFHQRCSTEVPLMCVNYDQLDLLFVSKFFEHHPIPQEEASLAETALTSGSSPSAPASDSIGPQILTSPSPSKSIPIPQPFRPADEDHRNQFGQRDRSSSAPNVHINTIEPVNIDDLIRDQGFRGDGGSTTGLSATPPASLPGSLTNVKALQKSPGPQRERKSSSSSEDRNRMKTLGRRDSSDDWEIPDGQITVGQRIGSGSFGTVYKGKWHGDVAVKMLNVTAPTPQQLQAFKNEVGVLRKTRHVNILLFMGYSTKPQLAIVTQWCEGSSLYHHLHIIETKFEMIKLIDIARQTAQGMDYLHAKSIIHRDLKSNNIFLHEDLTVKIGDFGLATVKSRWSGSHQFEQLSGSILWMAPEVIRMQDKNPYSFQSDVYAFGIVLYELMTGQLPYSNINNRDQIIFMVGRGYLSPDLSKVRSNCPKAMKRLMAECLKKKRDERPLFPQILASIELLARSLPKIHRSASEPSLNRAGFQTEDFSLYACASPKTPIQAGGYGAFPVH
JNK1, sequence (P45983 whole entry): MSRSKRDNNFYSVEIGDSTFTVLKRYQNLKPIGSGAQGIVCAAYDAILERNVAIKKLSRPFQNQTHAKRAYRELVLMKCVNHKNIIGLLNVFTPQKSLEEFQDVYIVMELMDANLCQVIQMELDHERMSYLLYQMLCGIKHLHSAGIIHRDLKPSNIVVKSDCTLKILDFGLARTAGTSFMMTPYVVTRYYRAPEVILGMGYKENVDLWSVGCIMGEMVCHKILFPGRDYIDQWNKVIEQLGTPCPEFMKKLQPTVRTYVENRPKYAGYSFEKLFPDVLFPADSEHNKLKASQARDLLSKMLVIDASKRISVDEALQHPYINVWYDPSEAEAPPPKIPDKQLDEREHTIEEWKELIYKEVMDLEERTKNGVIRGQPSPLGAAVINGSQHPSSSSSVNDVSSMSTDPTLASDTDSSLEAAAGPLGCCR

Row | Selectivity JNK1, IC50(off-target)/IC50(MKK4) (JNK1) | Selectivity IVIKK7, IC50(off-target)/IC50(MKK4) (MKK7) | Selectivity Braf, IC50(off-target)/IC50(MKK4) (BRaf) | IC50 (MKK4) [µM] | Structure (SMILES)
1 | + (10 ≥ IC50(off-target)/IC50(MKK4) > 3) | +++ (IC50(off-target)/IC50(MKK4) > 100) | ◯ (3 ≥ IC50(off-target)/IC50(MKK4)) | 0.1 to 1 | CCCS(=O)(=O)Nc1ccc(F)c(C(=O)c2c[nH]c3ncc(-c4ccccc4C#N)cc23)c1F [Example 118, N-(3-(5-(2-cyanophenyl)-1H-pyrrolo[2,3-b]pyridine-3-carbonyl)-2,4-difluorophenyl)propane-1-sulfonamide]
2 | ◯ (3 ≥ IC50(off-target)/IC50(MKK4)) | +++ (IC50(off-target)/IC50(MKK4) > 100) | ◯ (3 ≥ IC50(off-target)/IC50(MKK4)) | 0.1 to 1 | CCCS(=O)(=O)Nc1ccc(F)c(C(=O)c2c[nH]c3ncc(-c4ccccc4N)cc23)c1F [Example 122, N-(3-(5-(2-aminophenyl)-1H-pyrrolo[2,3-b]pyridine-3-carbonyl)-2,4-difluorophenyl)propane-1-sulfonamide]

Second part, the molecule before the results:

Row | Structure (SMILES) | Selectivity JNK1, IC50(off-target)/IC50(MKK4) (JNK1) | Selectivity IVIKK7, IC50(off-target)/IC50(MKK4) (MKK7) | Selectivity Braf, IC50(off-target)/IC50(MKK4) (BRaf) | IC50 (MKK4) [µM]
3 | CCCS(=O)(=O)Nc1ccc(F)c(C(=O)c2c[nH]c3ncc(N4CC(C)OC(C)C4)cc23)c1F (stereo not drawn) [Example 138, N-(3-(5-(2,6-dimethyl-morpholino)-1H-pyrrolo[2,3-b]pyridine-3-carbonyl)-2,4-difluorophenyl)propane-1-sulfonamide] | ◯ (3 ≥ IC50(off-target)/IC50(MKK4)) | ++ (100 ≥ IC50(off-target)/IC50(MKK4) > 10) | ◯ (3 ≥ IC50(off-target)/IC50(MKK4)) | 1 to 10
4 | CCCS(=O)(=O)Nc1ccc(F)c(C(=O)c2c[nH]c3ncc(N4CCC(O)CC4)cc23)c1F [Example 136, N-(2,4-difluoro-3-(5-(4-hydroxypiperidin-1-yl)-1H-pyrrolo[2,3-b]pyridine-3-carbonyl)phenyl)propane-1-sulfonamide] | ◯ (3 ≥ IC50(off-target)/IC50(MKK4)) | ++ (100 ≥ IC50(off-target)/IC50(MKK4) > 10) | ◯ (3 ≥ IC50(off-target)/IC50(MKK4)) | 1 to 10
5 | CCCS(=O)(=O)Nc1c(F)ccc(C(=O)c2c[nH]c3ncc(-c4cnc(N5CC[C@H](O)C5)nc4)cc23)c1F [Example 203, (S)-N-(2,6-difluoro-3-(5-(2-(3-hydroxypyrrolidin-1-yl)pyrimidin-5-yl)-1H-pyrrolo[2,3-b]pyridine-3-carbonyl)phenyl)propane-1-sulfonamide] | +++ (IC50(off-target)/IC50(MKK4) > 100) | +++ (IC50(off-target)/IC50(MKK4) > 100) | ++ (100 ≥ IC50(off-target)/IC50(MKK4) > 10) | < 0.1
6 | CCCS(=O)(=O)Nc1ccc(F)c(C(=O)c2c[nH]c3ncc(-c4ccc(S(=O)(=O)C(F)F)cc4)cc23)c1F [Example 74, N-(3-(5-(4-((difluoromethyl)sulfonyl)phenyl)-1H-pyrrolo[2,3-b]pyridine-3-carbonyl)-2,4-difluorophenyl)propane-1-sulfonamide] | + (10 ≥ IC50(off-target)/IC50(MKK4) > 3) | +++ (IC50(off-target)/IC50(MKK4) > 100) | ◯ (3 ≥ IC50(off-target)/IC50(MKK4)) | 0.1 to 1
7 | CCCS(=O)(=O)Nc1ccc(F)c(C(=O)c2c[nH]c3ncc(-c4cscn4)cc23)c1F [Example 57] | ◯ (3 ≥ IC50(off-target)/IC50(MKK4)) | +++ (IC50(off-target)/IC50(MKK4) > 100) | ◯ (3 ≥ IC50(off-target)/IC50(MKK4)) | 0.1 to 1
8 | CCCS(=O)(=O)Nc1ccc(F)c(C(=O)c2c[nH]c3ncc(-c4cnccn4)cc23)c1F [Example 89, N-(2,4-difluoro-3-(5-(pyrazin-2-yl)-1H-pyrrolo[2,3-b]pyridine-3-carbonyl)phenyl)propane-1-sulfonamide] | ◯ (3 ≥ IC50(off-target)/IC50(MKK4)) | ++ (100 ≥ IC50(off-target)/IC50(MKK4) > 10) | ◯ (3 ≥ IC50(off-target)/IC50(MKK4)) | 1 to 10
9 | CCCS(=O)(=O)Nc1c(F)ccc(C(=O)c2c[nH]c3ncc(-c4ccc(S(C)(=N)=O)nc4)cc23)c1F (stereo not drawn) [Example 164, N-(2,6-difluoro-3-(5-(6-(S-methylsulfonimidoyl)pyridin-3-yl)-1H-pyrrolo[2,3-b]pyridine-3-carbonyl)phenyl)propane-1-sulfonamide] | ++ (100 ≥ IC50(off-target)/IC50(MKK4) > 10) | +++ (IC50(off-target)/IC50(MKK4) > 100) | ++ (100 ≥ IC50(off-target)/IC50(MKK4) > 10) | < 0.1
10 | CS(=O)(=O)Nc1c(F)ccc(C(=O)c2c[nH]c3ncc(-c4ccc(Cl)cc4)cc23)c1F [Example 149, N-(3-(5-(4-chlorophenyl)-1H-pyrrolo[2,3-b]pyridine-3-carbonyl)-2,6-difluorophenyl)methanesulfonamide] | ++ (100 ≥ IC50(off-target)/IC50(MKK4) > 10) | +++ (IC50(off-target)/IC50(MKK4) > 100) | ++ (100 ≥ IC50(off-target)/IC50(MKK4) > 10) | 0.1 to 1
11 | CCCS(=O)(=O)Nc1c(F)ccc(C(=O)c2c[nH]c3ncc(-c4cnc(C(N)=O)nc4)cc23)c1F [Example 190, 5-(3-(2,4-difluoro-3-(propylsulfonamido)benzoyl)-1H-pyrrolo[2,3-b]pyridin-5-yl)pyrimidine-2-carboxamide] | +++ (IC50(off-target)/IC50(MKK4) > 100) | +++ (IC50(off-target)/IC50(MKK4) > 100) | +++ (IC50(off-target)/IC50(MKK4) > 100) | < 0.1
12 | CCCS(=O)(=O)Nc1ccc(F)c(C(=O)c2c[nH]c3ncc(N4CCOCC4)cc23)c1F [Example 70, N-(2,4-difluoro-3-(5-morpholino-1H-pyrrolo[2,3-b]pyridine-3-carbonyl)phenyl)propane-1-sulfonamide] | ++ (100 ≥ IC50(off-target)/IC50(MKK4) > 10) | +++ (IC50(off-target)/IC50(MKK4) > 100) | ◯ (3 ≥ IC50(off-target)/IC50(MKK4)) | 0.1 to 1
13 | CCCS(=O)(=O)Nc1ccc(F)c(C(=O)c2c[nH]c3ncc(-c4ncccn4)cc23)c1F [Example 90, N-(2,4-difluoro-3-(5-(pyrimidin-2-yl)-1H-pyrrolo[2,3-b]pyridine-3-carbonyl)phenyl)propane-1-sulfonamide] | ◯ (3 ≥ IC50(off-target)/IC50(MKK4)) | ++ (100 ≥ IC50(off-target)/IC50(MKK4) > 10) | ◯ (3 ≥ IC50(off-target)/IC50(MKK4)) | 1 to 10
14 | CCCS(=O)(=O)Nc1c(F)ccc(C(=O)c2c[nH]c3ncc(-c4ccc(OCC(O)CO)cc4Cl)cc23)c1F (stereo not drawn) [Example 153, N-(3-(5-(2-chloro-4-(2,3-dihydroxypropoxy)phenyl)-1H-pyrrolo[2,3-b]pyridine-3-carbonyl)-2,6-difluorophenyl)propane-1-sulfonamide] | ++ (100 ≥ IC50(off-target)/IC50(MKK4) > 10) | +++ (IC50(off-target)/IC50(MKK4) > 100) | +++ (IC50(off-target)/IC50(MKK4) > 100) | < 0.1
15 | O=C(c1c(F)ccc(NS(=O)(=O)CCC(F)(F)F)c1F)c1c[nH]c2ncc(-c3ccc(N4CCSCC4)nc3)cc12 [Example 80, N-(2,4-difluoro-3-(5-(6-thiomorpholinopyridin-3-yl)-1H-pyrrolo[2,3-b]pyridine-3-carbonyl)phenyl)-3,3,3-trifluoropropane-1-sulfonamide] | ++ (100 ≥ IC50(off-target)/IC50(MKK4) > 10) | +++ (IC50(off-target)/IC50(MKK4) > 100) | ++ (100 ≥ IC50(off-target)/IC50(MKK4) > 10) | < 0.1
